One experiment relates to mitochondria or chloroplast of Chlamydomonas reinhardtii. The experiment is described as follows: Subcellular localization of Venus reporter by epifluorescence microscopy (manual targeting assignment). Format: cell-based. The conditions noted are these: manual targeting assignment of the Venus reporter construct in Chlamydomonas: Neither / Mitochondria / Chloroplast / Dual, (partial) = partial targeting. An excerpt: In a bid to keep peptidase recognition sites intact, C-terminal elements were designed to start 10 residues upstream of the cleavage site, even though this slightly truncates TP helices. Peptides carrying the 15-amino-acid cTP N-terminus (cTP-N) will be denoted ^cP. Similarly, peptides with C-terminal elements from RCA1-cTP (cTP-C) or CAG2-mTP (mTP-C) will be denoted P^c or P^m, respectively. Peptide variants are used to drive the subcellular localization of a Venus fluorescent reporter protein, which was assessed using fluorescence microscopy; in Figure 2, an executive overview of observed Venus localization is presented for all constructs. […] Here, we use automated image segmentation to validate our subcellular localization assessment (Supplemental Figure 2, Supplemental text). […] The reader will be asked to return to Figure 2 throughout, with Figures 3 and 4 providing selected micrographs as examples highlighting particular points of interest.
Chlamydomonas TP sequences were amplified from genomic DNA extracted from strain T222+ (CC-5101). Templates for codon-optimized HA-RAMP, RP, and R→K modified TP sequences were obtained by gene synthesis (Eurofins Genomics). Correct assembly was verified by sequencing (Eurofins Genomics). Linear transformation cassettes were generated through restriction digestion with EcoRV (New England Biolabs).
Constructs were transformed into wild-type strain T222+ (CC-5101) using a protocol described previously ([Onishi and Pringle, 2016]), except using 4 μl of DNA at 2 μg/μl.
Strains with suspected mitochondrial targeting were treated with 0.1 μM MitoTracker Red CMXRos (Thermo Fisher Scientific) in growth medium for 30 min in the dark and washed with TAP prior to taking images.
Legend for Fig. S3 – S20. Three independent transformant lines (Strains 1-3) are shown for each combination of modifications (A-L), represented by a cartoon and a shorthand description (cf. Fig.
2). Where a construct was interpreted as generating reporter localization in mitochondria or […]
Epifluorescence microscopy images of typical cells for each strain are shown. MitoTracker fluorescence, false-coloured in cyan, indicates the position of mitochondria (although parts of the cell exterior are sometimes also stained). False-coloured yellow fluorescence from the Venus channel reports on the subcellular localization of the fluorescent reporter. Chlorophyll autofluorescence, shown in magenta, indicates the location of the chloroplast. Scale bars are 5µm. Brightness (Br.) was adjusted for clarity: fluorescence intensity values were restricted to the range shown for each channel by matching coloured rectangles. Intensity scales to 0 at the bottom of the panel, and to 65535 at the top.
On the right-hand side, quantitative information associated with each construct is shown. Data was normalized such that averages range from 0 to 1 across all constructs (cf. Fig S2). Individual cell measurements may exceed this range; for clarity, the range shown here is limited to -0.5 to 1.5, with outliers that have more extreme values shown as lying beyond a dashed line. Strain 1 is plotted as circles, strain 2 as squares, and strain 3 as diamonds. Venus: Fluorescence plate reader data of transformants screened for this construct (Venus fluorescence, accounting for cell density using linear regression of OD750 and chlorophyll fluorescence trained on ‘no venus’ control transformants). Transformants that were not selected after screening are shown as small grey circles. A colour code ranging from white (low Venus fluorescence) to black (high Venus fluorescence) is used for strains 1-3 and the average thereof. Automated image quantification data: pyr/chl: Venus channel signal in the pyrenoid relative to in the chlorophyll region; mt/cell: Venus channel signal in mitochondria relative to the whole cell. Each point corresponds to a single cell.
The colour code code is the same as that below distributions in Fig. S2, i.e. blue highlights the […]
Take “MGLLLDTLRGAARDIAGIALERLRCRITGCRP [R2G.R]”: the Localisation result is “Mitochondria (partial)”. With “MGLLLDTLRGAARDIAGIALERLRCRITGCRPLTQTAESFRGVSSQFFDAPNGPSVKQVLIEDEW [R2G.R.m]”, the Localisation result is “Mitochondria”. In the case of “MGLLLDTLRGAARDIAGIALERLRCRITGCRPSVRRAQLQVVASSRKQMGRWRSIDAGVDASDDQ [R2G.R.c]”, the Localisation result is “Neither”. The same measure, in the same setting: to “MGRIPVRAIRRAGAAIGRGLRAINIASTAHDVYSFFRPRHRRR [SIM.R]” belongs “Neither”; to “MGRIPVRAIRRAGAAIGRGLRAINIASTAHDVYSFFRPRHRRRLTQTAESFRGVSSQFFDAPNGPSVKQVLIEDEW [SIM.R.m]”, “Neither”; to “MGRIPVRAIRRAGAAIGRGLRAINIASTAHDVYSFFRPRHRRRSVRRAQLQVVASSRKQMGRWRSIDAGVDASDDQ [SIM.R.c]”, “Neither”. On the same count and under the same terms, as for “MGWIRDFGRRIERVGQHTRDATIQTIAVAQQAANVAATLRG [S1D.R]”, the entry is “Neither”; as for “MGWIRDFGRRIERVGQHTRDATIQTIAVAQQAANVAATLRGLTQTAESFRGVSSQFFDAPNGPSVKQVLIEDEW [S1D.R.m]”, “Neither”.

Consider “MGWIRDFGRRIERVGQHTRDATIQTIAVAQQAANVAATLRGSVRRAQLQVVASSRKQMGRWRSIDAGVDASDDQ [S1D.R.c]”, for which the Localisation result is listed as “Chloroplast (partial)”. The same measure, in the same setting: to MLKKVGQSLVPFAKAG [MH.K] belongs “Neither”; to “MLKKVGQSLVPFAKAGLTQTAESFKGVSSQFFDAPNGPSVKQVLIEDEW [MH.K.m]”, “Neither”. The same measure, in the same setting: as for “MLKKVGQSLVPFAKAGSVRRAQLQVVASSRKQMGRWRSIDAGVDASDDQ [MH.K.c]”, the entry is “Dual”; as for MLKRVGQSLVPFARAG [MH.R], “Mitochondria (partial)”.

As for “MLKRVGQSLVPFARAGLTQTAESFRGVSSQFFDAPNGPSVKQVLIEDEW [MH.R.m]”, the Localisation result is “Mitochondria (partial)”. On to “MLKRVGQSLVPFARAGSVRRAQLQVVASSRKQMGRWRSIDAGVDASDDQ [MH.R.c]”, for which the Localisation result was “Dual”.

For “MLTQTAESFRGVSSQFFDAPNGPSVKQVLIEDEW [-.m]”, the Localisation result is “Neither”. On to MQVTMKSSAVSGQKVGGAKVATK [c.CH.K], for which the Localisation entry is given as “Neither”. As for “MQVTMKSSAVSGQKVGGAKVATKLTQTAESFRGVSSQFFDAPNGPSVKQVLIEDEW [c.CH.K.m]”, the Localisation result was “Neither”. The same measure, in the same setting: to “MQVTMKSSAVSGQKVGGAKVATKSVKKAQLQVVASSKKQMGKWKSIDAGVDASDDQ [c.CH.K.c]” belongs “Chloroplast (partial)”; to “MQVTMKSSAVSGQRVALWRTMLRRLGTMALHAGRAAFGAAADTISQ [c.DDM.R]”, “Mitochondria (partial)”. On the same count and under the same terms, to “MQVTMKSSAVSGQRVALWRTMLRRLGTMALHAGRAAFGAAADTISQLTQTAESFRGVSSQFFDAPNGPSVKQVLIEDEW [c.DDM.R.m]” belongs “Neither”.

Turning to “MQVTMKSSAVSGQRVALWRTMLRRLGTMALHAGRAAFGAAADTISQSVRRAQLQVVASSRKQMGRWRSIDAGVDASDDQ [c.DDM.R.c]”, the Localisation entry is given as “Chloroplast”.

Still in this experiment, the particulars now being: peptide-Venus reporter construct expressed in Chlamydomonas reinhardtii; manual targeting assignment (Neither / Mitochondria / Chloroplast / Dual; partial = partial targeting).
On to “MGLFSRFNRRRIRSGLIRIIRTAGREAGLEALRTGIDVIGCRIRGEC [E1S.R]”, for which the Localisation entry was “Neither”. Same read-out and setting: to “MGLFSRFNRRRIRSGLIRIIRTAGREAGLEALRTGIDVIGCRIRGECLTQTAESFRGVSSQFFDAPNGPSVKQVLIEDEW [E1S.R.m]” belongs “Mitochondria (partial)”; to “MGLFSRFNRRRIRSGLIRIIRTAGREAGLEALRTGIDVIGCRIRGECSVRRAQLQVVASSRKQMGRWRSIDAGVDASDDQ [E1S.R.c]”, “Neither”; to “MKYYGNGVHCTKSGCSVNWGEAFSAGVHRLANGGNGFW [LCA.K]”, “Neither”. Still for that read-out and setting: as for “MKYYGNGVHCTKSGCSVNWGEAFSAGVHRLANGGNGFWLTQTAESFRGVSSQFFDAPNGPSVKQVLIEDEW [LCA.K.m]”, the entry is “Neither”; as for “MKYYGNGVHCTKSGCSVNWGEAFSAGVHRLANGGNGFWSVRRAQLQVVASSRKQMGRWRSIDAGVDASDDQ [LCA.K.c]”, “Chloroplast (partial)”; as for “MKYYGNGVHCTRSGCSVNWGEAFSAGVHRLANGGNGFW [LCA.R]”, “Neither”.

As to “MKYYGNGVHCTRSGCSVNWGEAFSAGVHRLANGGNGFWLTQTAESFRGVSSQFFDAPNGPSVKQVLIEDEW [LCA.R.m]”, the Localisation entry is “Neither”. On the same count and under the same terms, to “MKYYGNGVHCTRSGCSVNWGEAFSAGVHRLANGGNGFWSVRRAQLQVVASSRKQMGRWRSIDAGVDASDDQ [LCA.R.c]” belongs “Chloroplast (partial)”. On the same count and under the same terms, as for “MQVTMKSSAVSGQRVALWMTLLKKVLKAAAKAALNAVLVGANA [c.DS4.K]”, the entry is “Neither”; as for “MQVTMKSSAVSGQRVALWMTLLKKVLKAAAKAALNAVLVGANALTQTAESFRGVSSQFFDAPNGPSVKQVLIEDEW [c.DS4.K.m]”, “Neither”. On the same count and under the same terms, to “MQVTMKSSAVSGQRVALWMTLLRRVLRAAARAALNAVLVGANA [c.DS4.R]” belongs “Neither”.

Staying with this experiment, now noted: targeting of the Venus reporter fused to the peptide, expressed in Chlamydomonas reinhardtii; manual assignment from epifluorescence microscopy; full or partial.
For “MGLLLDTLKGAAKDIAGIALEKLKCKITGCKP [R2G.K]”, the Localisation result is given as “Neither”. On the same count and under the same terms, as for “MGLLLDTLKGAAKDIAGIALEKLKCKITGCKPLTQTAESFRGVSSQFFDAPNGPSVKQVLIEDEW [R2G.K.m]”, the entry is “Mitochondria (partial)”. The same measure, in the same setting: to “MGLLLDTLKGAAKDIAGIALEKLKCKITGCKPSVRRAQLQVVASSRKQMGRWRSIDAGVDASDDQ [R2G.K.c]” belongs “Neither”; to “MGWIRDFGKRIERVGQHTRDATIQTIAVAQQAANVAATLKG [S1D.K]”, “Neither”; to “MGWIRDFGKRIERVGQHTRDATIQTIAVAQQAANVAATLKGLTQTAESFRGVSSQFFDAPNGPSVKQVLIEDEW [S1D.K.m]”, “Neither”.

As to “MGWIRDFGKRIERVGQHTRDATIQTIAVAQQAANVAATLKGSVRRAQLQVVASSRKQMGRWRSIDAGVDASDDQ [S1D.K.c]”, the Localisation result is on record as “Chloroplast”. With “MKYYGNGVSCNKKGCSVDWGKAIGIIGNNAAANLTTGGKAGWKG [EHF.K]”, the Localisation entry is “Neither”. On to “MKYYGNGVSCNKKGCSVDWGKAIGIIGNNAAANLTTGGKAGWKGLTQTAESFRGVSSQFFDAPNGPSVKQVLIEDEW [EHF.K.m]”, for which the Localisation entry is on record as “Neither”.

For the sequence “MKYYGNGVSCNKKGCSVDWGKAIGIIGNNAAANLTTGGKAGWKGSVRRAQLQVVASSRKQMGRWRSIDAGVDASDDQ [EHF.K.c]”, the Localisation result is recorded as “Chloroplast (partial)”. As to MNIVVYWNFTLWHMDINARNAGCDGEGS [RP1.K], the Localisation entry is given as “Neither”. The same measure, in the same setting: to “MNIVVYWNFTLWHMDINARNAGCDGEGSLTQTAESFRGVSSQFFDAPNGPSVKQVLIEDEW [RP1.K.m]” belongs “Neither”; to “MNIVVYWNFTLWHMDINARNAGCDGEGSSVRRAQLQVVASSRKQMGRWRSIDAGVDASDDQ [RP1.K.c]”, “Neither”; to MQVTMKSSAVSGQRV [c.-], “Neither”. Regarding “MQVTMKSSAVSGQRVAAAAAAAASVRRAQLQVVASSRKQMGRWRSIDAGVDASDDQ [c.AA.c]”, the Localisation entry is “Chloroplast (partial)”.

On to “MQVTMKSSAVSGQRVALWMTLLKKVLKAAAKAALNAVLVGANASVRRAQLQVVASSRKQMGRWRSIDAGVDASDDQ [c.DS4.K.c]”, for which the Localisation result is reported as “Neither”. On the same count and under the same terms, as for “MQVTMKSSAVSGQRVALWMTLLRRVLRAAARAALNAVLVGANALTQTAESFRGVSSQFFDAPNGPSVKQVLIEDEW [c.DS4.R.m]”, the entry is “Neither”. Same read-out and setting: as for “MQVTMKSSAVSGQRVALWMTLLRRVLRAAARAALNAVLVGANASVRRAQLQVVASSRKQMGRWRSIDAGVDASDDQ [c.DS4.R.c]”, the entry is “Neither”; as for “MQVTMKSSAVSGQRVDEVNNDNCRIKFKGDISSESDKMNINY [c.RP2.K]”, “Neither”.

The values are drawn from publication PMC10363480 (Plant Communications, 2023).
